Columns and labels:
[1] = Hammett constant was evaluated; type: ADME
[2] = molecular target: T1, Corticosteroid-binding globulin (Homo sapiens) (UniProt P08185)
T1 sequence (whole entry): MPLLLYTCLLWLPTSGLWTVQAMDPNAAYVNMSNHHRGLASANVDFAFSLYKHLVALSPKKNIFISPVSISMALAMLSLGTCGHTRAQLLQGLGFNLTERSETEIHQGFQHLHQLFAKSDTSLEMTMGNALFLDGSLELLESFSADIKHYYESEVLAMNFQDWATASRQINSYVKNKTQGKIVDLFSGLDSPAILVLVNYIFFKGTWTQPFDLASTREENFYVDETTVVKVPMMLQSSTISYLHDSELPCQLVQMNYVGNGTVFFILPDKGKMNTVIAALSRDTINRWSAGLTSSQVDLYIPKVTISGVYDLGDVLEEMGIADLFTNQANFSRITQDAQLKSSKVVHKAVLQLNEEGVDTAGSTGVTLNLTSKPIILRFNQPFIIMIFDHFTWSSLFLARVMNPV
Description: Binding affinity for corticosteroid binding globulin is expressed as log(1/k)

[3] = molecular target: T2, Sex hormone-binding globulin (Homo sapiens) (UniProt P04278)
T2 sequence (whole entry): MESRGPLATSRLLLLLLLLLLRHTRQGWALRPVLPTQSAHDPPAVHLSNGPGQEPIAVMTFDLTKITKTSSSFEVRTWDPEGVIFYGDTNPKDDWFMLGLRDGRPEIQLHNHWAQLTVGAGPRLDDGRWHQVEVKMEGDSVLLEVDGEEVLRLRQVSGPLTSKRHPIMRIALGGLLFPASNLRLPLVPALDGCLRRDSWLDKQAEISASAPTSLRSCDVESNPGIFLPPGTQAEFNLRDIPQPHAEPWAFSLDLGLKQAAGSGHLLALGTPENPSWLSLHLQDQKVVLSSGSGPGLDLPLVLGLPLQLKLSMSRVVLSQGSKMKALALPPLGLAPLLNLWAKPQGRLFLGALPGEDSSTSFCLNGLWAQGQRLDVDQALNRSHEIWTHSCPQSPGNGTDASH
Description: Binding affinity towards testosterone binding globulin is expressed as log(1/k).

Structure (SMILES) | Hammett constant [1] | Log 1/K [2] | Log 1/K [3]
Nc1cccc(C(=O)O)c1 [3-AMINOBENZOIC ACID] | -0.16 | – | –
CC(=O)[C@@]1(O)CC[C@H]2[C@@H]3CCC4=CC(=O)CC[C@]4(C)[C@H]3CC[C@@]21C | – | 7.74 | 7
CS(=O)(=O)c1cccc(C(=O)O)c1 | 0.6 | – | –
O=C(O)c1ccc(Br)cc1 | 0.23 | – | –
C[C@]12C[C@H](O)[C@H]3[C@@H](CCC4=CC(=O)CC[C@@]43C)[C@@H]1CC[C@@H]2C(=O)CO | – | 7.88 | 6.34
N#Cc1cccc(C(=O)O)c1 | 0.56 | – | –
CC(=O)[C@H]1CC[C@H]2[C@@H]3CCC4=CC(=O)CC[C@@H]4[C@H]3CC[C@]12C | – | 6.82 | –
O=C(O)c1cccc(S)c1 | 0.25 | – | –
O=C(O)c1cccc(I)c1 | 0.35 | – | –
CC(=O)[C@@]1(O)[C@H](O)C[C@H]2[C@@H]3CCC4=CC(=O)CC[C@]4(C)[C@H]3CC[C@@]21C | – | 6.25 | –
C[C@]12CC[C@H]3[C@@H](CCC4=CC(=O)CC[C@@]43C)[C@@H]1CC[C@@H]2O | – | 6.72 | 9.2
CS(=O)(=O)c1ccc(C(=O)O)cc1 | 0.72 | – | –
CSc1ccc(C(=O)O)cc1 | 0 | – | –
O=C(O)c1cccc(SC(F)(F)F)c1 | 0.4 | – | –
C[C@]12CC[C@H](O)C[C@@H]1CC[C@@H]1[C@@H]2CC[C@]2(C)[C@@H](O)CC[C@@H]12 | – | 5 | 9.11
O=C(O)c1ccc(CBr)cc1 | 0.14 | – | –
C[C@]12CC[C@@H]3c4ccc(O)cc4CC[C@H]3[C@@H]1C[C@@H](O)[C@@H]2O | – | 5 | 6.63
C[C@@H]1C[C@@]2(C)C(=CC1=O)CC[C@H]1[C@@H]3CC[C@](O)(C(=O)CO)[C@@]3(C)C[C@H](O)[C@@]12F | – | 5.8 | –
O=C(O)c1ccc(SC(F)(F)F)cc1 | 0.5 | – | –
O=C(O)c1cccc(O)c1 [3-HYDROXYBENZOIC ACID] | 0.12 | – | –
CC(=O)[C@H]1CC[C@H]2[C@@H]3CC=C4C[C@@H](O)CC[C@]4(C)[C@H]3CC[C@]12C | – | 5.25 | 7.15
CC(=O)[C@H]1CC[C@H]2[C@@H]3CCC4=CC(=O)CC[C@]4(C)[C@H]3C(=O)C[C@]12C | – | 6.78 | –
CC(C)(C)c1ccc(C(=O)O)cc1 | -0.2 | – | –
O=C(O)c1cccc(S(=O)(=O)F)c1 | 0.8 | – | –

Structure (SMILES) | Hammett constant [1] | Log 1/K [2] | Log 1/K [3]
N#Cc1ccc(C(=O)O)cc1 | 0.66 | – | –
O=C(O)c1cccc(F)c1 | 0.34 | – | –
Nc1ccc(C(=O)O)cc1 [AMINOBENZOIC ACID] | -0.66 | – | –
C[C@]12CCC(=O)C=C1CC[C@@H]1[C@@H]2[C@@H](O)C[C@]2(C=O)[C@@H](C(=O)CO)CC[C@@H]12 | – | 6.28 | 5.32
C[C@]12CC[C@H]3[C@@H](CCC4=CC(=O)CC[C@@H]43)[C@@H]1CC[C@@H]2O | – | 6.14 | –
O=C(O)c1cccc(CI)c1 | 0.1 | – | –
C[C@]12CCC(=O)C=C1CC[C@@H]1[C@@H]2[C@@H](O)C[C@@]2(C)[C@H]1CC[C@]2(O)C(=O)CO | – | 7.88 | 6.2
O=C(O)c1ccc(S(=O)(=O)F)cc1 | 0.91 | – | –
CCc1cccc(C(=O)O)c1 | -0.07 | – | –
C[C@]12CC[C@H](O)CC1=CC[C@@H]1[C@@H]2CC[C@]2(C)C(=O)CC[C@@H]12 | – | 5 | 7.82
O=C(O)c1ccccc1 [BENZOIC ACID] | 0 | – | –
CC(=O)OCC(=O)[C@@]1(O)CCC2C3CCC4=CC(=O)CC[C@]4(C)C3C(O)C[C@@]21C (some centres not stated) | – | 7.55 | –
O=C(O)c1cccc([N+](=O)[O-])c1 | 0.71 | – | –
O=C(O)c1ccc(CCl)cc1 | 0.12 | – | –
CC(C)(C)c1cccc(C(=O)O)c1 | -0.1 | – | –
C[C@]12C[C@@H](O)[C@H]3[C@@H](CCC4=CC(=O)CC[C@@]43C)[C@@H]1CC[C@@H]2C(=O)CO | – | 7.2 | –
COc1ccc(C(=O)O)cc1 [p-ANISIC ACID] | -0.27 | – | –
O=C(O)c1cccc(CBr)c1 | 0.12 | – | –
O=C(O)c1ccc(O)cc1 [PARABEN] | -0.37 | – | –
COc1cccc(C(=O)O)c1 | 0.12 | – | –
O=C(O)c1cccc(Cl)c1 | 0.37 | – | –
O=C(O)c1ccc(I)cc1 | 0.18 | – | –
CC(=O)[C@@]1(O)CC[C@H]2[C@@H]3CC=C4C[C@@H](O)CC[C@]4(C)[C@H]3CC[C@@]21C | – | 5 | 6.36
O=C(O)c1ccc(C(F)(F)C(F)(F)F)cc1 | 0.52 | – | –

Structure (SMILES) | Hammett constant [1] | Log 1/K [2] | Log 1/K [3]
O=C(O)c1cccc(OC(F)(F)F)c1 | 0.38 | – | –
O=C(O)c1cccc(Br)c1 | 0.39 | – | –
O=C(O)c1cccc(C(F)(F)F)c1 | 0.43 | – | –
O=C(O)c1ccc(C(F)(F)F)cc1 | 0.54 | – | –
C[C@]12C=CC(=O)C=C1CC[C@@H]1[C@@H]2[C@@H](O)C[C@@]2(C)[C@H]1CC[C@]2(O)C(=O)CO | – | 7.51 | –
O=C(O)c1ccc(CI)cc1 | 0.11 | – | –
O=C(O)c1ccc([N+](=O)[O-])cc1 [4-NITROBENZOIC ACID] | 0.78 | – | –
Cc1ccc(C(=O)O)cc1 [4-METHYLBENZOIC ACID] | -0.17 | – | –
O=C(O)c1ccc(OC(F)(F)F)cc1 | 0.35 | – | –
CCc1ccc(C(=O)O)cc1 | -0.15 | – | –
C[C@]12CC[C@H]3[C@@H](CCC4=CC(=O)CC[C@@]43C)[C@@H]1CC[C@@H]2C(=O)CO | – | 7.65 | 7.38
C[C@]12CCC(=O)C=C1CC[C@@H]1[C@@H]2C(=O)C[C@@]2(C)[C@H]1CC[C@]2(O)C(=O)CO | – | 6.89 | 6.43
CSc1cccc(C(=O)O)c1 | 0.15 | – | –
CC(=O)[C@@]1(C)CCC2C3CCC4=CC(=O)CC[C@]4(C)C3CC[C@@]21C (some centres not stated) | – | 7.12 | –
O=C(O)c1ccc(S(=O)(=O)C(F)(F)F)cc1 | 0.93 | – | –
O=C(O)c1cccc(CCl)c1 | 0.11 | – | –
C[C@]12CCC(=O)C=C1CC[C@@H]1[C@@H]2CC[C@]2(C)C(=O)CC[C@@H]12 | – | 5.76 | 7.46
O=C(O)c1ccc(S)cc1 | 0.15 | – | –
O=C(O)c1cccc(S(=O)(=O)C(F)(F)F)c1 | 0.79 | – | –
O=C(O)c1ccc(F)cc1 | 0.06 | – | –
CC(=O)[C@H]1CC[C@H]2[C@@H]3CCC4=CC(=O)CC[C@]4(C)[C@H]3CC[C@]12C | – | 7.38 | 6.94
Cc1cccc(C(=O)O)c1 | -0.07 | – | –
C[C@]12CCC(=O)C=C1CC[C@@H]1[C@@H]2CC[C@@]2(C)[C@H]1CC[C@]2(O)C(=O)CO | – | 7.88 | 7.2
O=C(O)c1cccc(C(F)(F)C(F)(F)F)c1 | 0.47 | – | –
